# From patent publication US20120328696A1, “ANTI-PARKINSONIAN COMPOUND ACETYLSALICYLIC ACID MALTOL ESTER” (Hutecs Korea Pharmaceutical Co., Ltd., priority 2008, published 2012)
# What was measured:
# Type in all cases: in vivo
# cleaved PKCδ = assay: Striatal cleaved PKCδ expression after MA (western blot); settings: MA 8 mg/kg i.p. x4, GPx-1 (+/+) and (−/−) mice; for effect on MA-induced striatal cleaved PKCδ expression: p.o., AME 25 or 50, EBS 10 or 20, rottlerin 10 or 20 mg/kg
# Experimental: (§1) The mice received four times of MA (8 mg/kg, ip) or saline as a 2 hr-time interval. Chemicals (AME, EBS, and PKC inhibitors) were administrated for 5 consecutive days (twice daily), and were given 2 times at 4 hr and 30 min before the first MA injection as shown in the experimental schedule. Animals were sacrificed at 4 hrs and 3 days after the final MA administration.
# Tissues were homogenized in lysis buffer, containing 200 mM Tris HCl (pH 6.8), 1% SDS, 5 mM EGTA (ethylene glycol tetraacetic acid), 5 mM EDTA (ethylenediaminetetraacetic acid), 10% glycerol, 1× phosphatase inhibitor cocktail I, 1× protease inhibitor cocktail. Lysate was centrifuged at 12,000×g for 30 min and supernatant fraction was used for Western blot analysis. […] And then, membranes were incubated with HRP-conjugated secondary anti-rabbit IgG (1:1000, GE healthcare, Piscataway, N.J., USA), anti-mouse IgG (1:1000, Sigma) or anti-goat IgG (1:1000, Sigma) for 2 h. Subsequent visualization was performed using enhanced chemiluminescence system (ECL Plus®, GE healthcare).
# p53 = assay: Striatal p53 expression after MA (western blot); settings: p.o.; AME 50, EBS 20, rottlerin 20 mg/kg; MA 8 mg/kg i.p. x4; GPx-1 (+/+) and (−/−) mice
# Experimental: as §1
# (§2) The western blot assays was performed as described previously (Kim et al., 2003). Tissues were homogenized in lysis buffer, containing 200 mM Tris HCl (pH 6.8), 1% SDS, 5 mM EGTA (ethylene glycol tetraacetic acid), 5 mM EDTA (ethylenediaminetetraacetic acid), 10% glycerol, 1× phosphatase inhibitor cocktail I, 1× protease inhibitor cocktail. Lysate was centrifuged at 12,000×g for 30 min and supernatant fraction was used for Western blot analysis. Proteins (20-50 ug/lane) were separated by 6%, 8%, 10% or 15% sodium dodecyl sulfate-polyacrylamide gel electrophoresis and transferred onto the PVDF membranes. Following transfer, the membranes were preincubated with 5% non-fat milk and incubated overnight at 4° C. with primary antibody against β-actin (1:50000, Sigma, St. Louis, Mo., USA), TH (1:5000, Chemicon), TH phosphor-Ser 19 (1:1000, Chemicon,), TH phosphor-Ser 31 (1:500, Chemicon), TH phosphor-Ser 40 (1:500, Chemicon), F4/80 (1:500, Serotec), GPx1 (1:2500, AbFrontier), PKC (1:5000, Santa Cruz biotechnology, Santa Cruz, Calif., USA), p53 (1:5000, Cell signaling, Beverly, Mass., USA), MDM2 (1:1000, BD Pharmingen, San Jose, Calif., USA), MDM2 phospho-Ser 166 (1:1000, cell signaling), BDNF (1:500, Chemicon), GDNF (1:250, Santa Cruz), COX-2 (1:2000, Cayman, Ann Arbor, MC, USA), IL-6 (1:2000, Abcam, Cambridge, Mass., USA), TNF-a (1:1000, R&D Systems, Mckinley place NE, NM, USA), IFN-γ (1:500, Chemicon) or Iba-1 (1:500, Wako, Osaka, Japan). And then, membranes were incubated with HRP-conjugated secondary anti-rabbit IgG (1:1000, GE healthcare, Piscataway, N.J., USA), anti-mouse IgG (1:1000, Sigma) or anti-goat IgG (1:1000, Sigma) for 2 h. […]
# [1] = test system: Iba-1 (a marker of microgliosis); assay: Iba-1 expression after MA (western blot); settings: p.o.; AME 50, EBS 20, rottlerin 20 mg/kg; MA 8 mg/kg i.p. x4; GPx-1 (+/+) and (−/−) mice
# Experimental: as §1, §2
# [2] = test system: tumor necrosis factor (TNF)-α; assay: TNF-α expression after MA (western blot); settings: p.o.; AME 50, EBS 20, rottlerin 20 mg/kg; MA 8 mg/kg i.p. x4; GPx-1 (+/+) and (−/−) mice
# Experimental: as §1, §2
# [3] = test system: F4/80 (a marker of microgliosis); assay: F4/80 expression after MA (western blot); settings: p.o.; AME 50, EBS 20, rottlerin 20 mg/kg; MA 8 mg/kg i.p. x4; GPx-1 (+/+) and (−/−) mice
# Experimental: as §1, §2
# [4] = test system: GPx-1 (+/+)- and GPx-1 (−/−)-mice; assay: Locomotor activity after MA; settings: MA 8 mg/kg i.p. x4, GPx-1 (+/+) and (−/−) mice
# Experimental: as §1
# Locomotor activity was measured for 30 min 3 days after the last MA administration using an automated video-tracking system (Noldus Information Technology, Wagenin, The Netherlands). Four test boxes (40×40×30 cm high) were operated simultaneously by an IBM computer. Mice were studied individually during locomotion in each test box, where they were adapted for 5 min before starting the experiment. […] The distance traveled in cm by the animals in horizontal locomotor activity was analyzed. Data were collected and analyzed between 09:00 and 17:00 h (Kim et al., 2001).
# MDA, 4-HNE = assay: Striatal lipid peroxidation (MDA, 4-HNE) after MA; settings: MDA and 4-HNE; striatum, 3 days after final MA; p.o.; AME 50, EBS 20, rottlerin 20 mg/kg; GPx-1 (+/+) and (−/−) mice
# Experimental: as §1
# The amount of lipid peroxidation was assessed by measuring the accumulation of thiobarbituric acid-reactive substance in homogenates of striatal tissue and is expressed as malondialdehyde (MDA) content (Kim et al., 1999, 2000b, 2002). In brief, 0.1 ml of the homogenate (or standard solutions prepared daily from 1,1,3,3-tetra-methoxypropane) and 0.75 ml of the working solution (thiobarbituric acid 0.37% and perchloric acid 6.4%, 2:1 v/v) were mixed and heated in a water bath to 95° C. for 1 h. After cooling (10 min in ice water bath), the flocculent precipitate was removed by centrifugation at 3200×g for 10 min. The supernatant was neutralized and filtered prior to injection on an ODS 5 μm column. Mobile phase consisted of 50 mM PBS (pH 6.0): methanol (58:42, v/v). Isocratic separation was performed with 1.0 ml/min flow rate and detection at 532 nm using a UV/VIS HPLC-Detector (Model 486, Waters Associates, Milford, Mass., USA). MDA values were expressed as nmole/mg protein.
# 4-hydroxy-2-nonenal (4HNE) is major product of the lipid peroxidation process (Benedetti et al., 1980). Determining of 4HNE was performed as slot blot analysis (Zhang et al., 2000). Briefly, following transfer, the PVDF membranes were preincubated with 5% non-fat milk and incubated overnight at 4° C. with anti-4HNE (1:2000, Calbiochem, San Diego, Calif., USA). After incubation with primary antibody, membranes were incubated with a HRP-conjugated secondary antibody. Subsequent visualization was performed using enhanced chemiluminescence system (ECL Plus®, GE healthcare).
# interferon (IFN)-γ = assay: IFN-γ expression after MA (western blot); settings: p.o.; AME 50, EBS 20, rottlerin 20 mg/kg; MA 8 mg/kg i.p. x4; GPx-1 (+/+) and (−/−) mice
# Experimental: as §1, §2
# [5] = p.o., AME 25 or 50, EBS 10 or 20, rottlerin 10 or 20 mg/kg
SMILES,effect on MA-induced striatal cleaved PKCδ expression (cleaved PKCδ),effect on MA-induced increase in striatal p53 expression (p53),effect on MA-induced increase in Iba-1 expression [1],effect on MA-induced increase in TNF-α expression [2],effect on MA-induced increase in F4/80 expression [3],"effect on MA-induced impairment in locomotor activity [4, 5]","effect on MA-induced increase in lipid peroxidation (MDA, 4-HNE)",effect on MA-induced increase in IFN-γ expression (interferon (IFN)-γ),effect on MA-induced increase in striatal cleaved PKCδ expression (cleaved PKCδ; intra-striatal),"effect on MA-induced impairment in locomotor activity ([4]; PKC inhibitors intra-striatal (chelerythrine 0.2 ug/head, rottlerin 3.0 ug/head significant))"
"CC(=O)Oc1ccccc1C(=O)Oc1c(C)occc1=O [AME, 3-(2-methyl-4-pyronyl)-2-acetyloxybenzoate]",significantly reduced MA-induced the PKCδ- and cleaved PKCδ-expressions in a dose-related manner,significantly inhibited MA-induced increase in p53 expression,significantly and consistently attenuating effects,significantly and consistently attenuating effects,significantly and consistently attenuating effects,inhibited these effects in a dose-dependent manner,significantly attenuated,significantly and consistently attenuating effects,–,–
CC(=O)c1c(O)c(C)c(O)c(Cc2c(O)c3c(c(C(=O)/C=C/c4ccccc4)c2O)OC(C)(C)C=C3)c1O [rottlerin],significantly reduced MA-induced the PKCδ- and cleaved PKCδ-expressions in a dose-related manner,significantly inhibited MA-induced increase in p53 expression,significantly and consistently attenuating effects,significantly and consistently attenuating effects,significantly and consistently attenuating effects,inhibited these effects in a dose-dependent manner,significantly attenuated,significantly and consistently attenuating effects,attenuated the MA-induced increases in PKCδ expressions in a dose-dependent manner,attenuated the MA-behavioral impairments in a dose-dependent manner
"O=c1c2ccccc2[se]n1-c1ccccc1 [EBS, 2-phenyl-1,2-benzisoselenazol-3(2H)-one]",significantly reduced MA-induced the PKCδ- and cleaved PKCδ-expressions in a dose-related manner,significantly inhibited MA-induced increase in p53 expression,significantly and consistently attenuating effects,significantly and consistently attenuating effects,significantly and consistently attenuating effects,inhibited these effects in a dose-dependent manner,significantly attenuated,significantly and consistently attenuating effects,–,–
